Data from patent US20250319211A1, “NEAR IR LUMINESCENCE AND OPTICALLY ADDRESSABLE QUANTUM SENSING AND MAGNETIC IMAGING WITH RADICALOID TETRATHIAFULVALENE TETRATHIOLATES” (The University of Chicago, priority 2022, published 2025).

What was measured:
[1] = 1,2-dichloroethane, background statement; cited from earlier work
[2] = 1,2-dichloroethane, background statement; cited from earlier work; remark: listed apart in the source
[3] = Photoluminescence quantum yield determination; format: physicochemical
Description: For the photoluminescence spectroscopy, all emission spectra were acquired on a Horiba Scientific PTI QuantaMaster fluorometer. Low temperature emission spectra were recorded by adding samples in 1:1 DCM:toluene into quartz EPR tubes and lowering the tube into an optical dewar filled with liquid N2. Excitation emission matrices were acquired on a Horiba Scientific Fluorolog-3 spectrofluorometer.
The samples, sealed in NMR tubes, were individually placed in an integrating sphere (Thorlabs, IS200-4) with a PbSe detector (Thorlabs, PDA20H) on one port and directly excited by an 808 nm diode laser (Thorlabs, M9-808-0150) of 15 W/cm^2 average intensity under 1 kHz square-wave modulation. The detector signal S, with and without a silicon window on the detector port, was recorded with the sample and with a DCM blank. […] The photoluminescence quantum yield is therefore SS,Si/(SD−SS)×( ? 808/ ? λS)×T^−1 where the subscripts S, D and Si respectively denote the sample, DCM blank, and silicon window. R is the wavelength-dependent PbSe detector responsivity, T is the total emission power transmitted by the silicon window, and λS is the average emission wavelength determined by integration of the spectrum. The detector responsivity is linear with wavelength in this spectral range so that ? 808/ ? λS=808/λS. Due to the spectral overlap between the sample emission and the soft absorption edge of silicon, we calculate T explicitly as ∫E(λ)dλ×
where E(λ) is the normalized sample emission spectrum and T(λ) is the T(λ) normalized silicon window transmission spectrum.
Comparative results for the diradical dication PtTTFtt against a conventional near IR dye (IR 26) provide PLQY of 0.09% in oxygenated 1,2-dichloroethane for compound 2 (PtTTFtt) in comparison to 0.05% for IR 26, as illustrated in FIG. 10.

[4] = Stability of compound 4 (irradiation, air, serum, buffer, water); format: physicochemical
[5] = Reactivity in the presence of small nucleophiles and ubiquitin (preliminary proteomics studies); conditions: ubiquitin
[6] = Cell viability assay after 72 hr treatment; format: cell-based; conditions: 1% DMSO solution, preliminary
Source text: FIG. 21 is a cell viability assay of compound 4 after 72 hr treatment, using 1% DMSO solution in accordance with certain disclosed embodiments.

ClC1=C(/C=C/c2cc(-c3ccccc3)[s+]c3ccccc23)CCC/C1=C\C=C1/C=C(c2ccccc2)Sc2ccccc21.[O-][Cl+3]([O-])([O-])[O-] [IR 26, 4-(7-(2-phenyl-4H-1-benzothiopyran-4-ylidene)-4-chloro-3,5-trimethylene-1,3,5-heptatrienyl)-2-phenyl-1-benzothiopyrylium perchlorate]
PLQY [1]: 0.05% | emission [2]: around 1130 nm | photoluminescence quantum yield (PLQY) ([3]; oxygenated 1,2-dichloroethane): 0.05%

[(Pt{dppe})2TTFtt][BAr^F4]2 [Compound 2]
photoluminescence quantum yield (PLQY) ([3]; oxygenated 1,2-dichloroethane): 0.09%

[(Pt{P(4-CF3Ph)3}2)2TTFtt][BAr^F4]2 [Compound 3]
photoluminescence quantum yield (PLQY) ([3]; 57 μM, dichloromethane, 298K, anaerobic conditions, highest of compounds 1-3): 0.43%

(Pt{1,5-cyclooctadiene})2 tetrathiafulvalene-2,3,6,7 tetrathiolate diradical dication [Compound 4]
stability to air, fetal bovine serum and phosphate buffer [4]: demonstrated | persistence of photoluminescence ([4]; continuous irradiation): 21 h | stability to water and air ([4]; crystallized out of 1:2 MeCN:water over 6 months): remarkable stability | integrity after exposure to proteins and small nucleophiles [5]: remains intact | toxicity [6]: nontoxic
